Among the data in PMC12040169 (PLOS Biology, 2025) are viability values, retold here.

SMILES strings stand for the structures.

The data set can be described thus: in vitro. Conditions: human, hela cells, % viability.
As to `NS(=O)(=O)c1ccc(CNC(=O)C2(c3ccccc3)CCCC2)cc1` [CBK161523], the viability at 28.5 h, 10 µM was 101%. In the case of `Cc1ccc(CNC(=O)C2(c3ccccc3)CCCC2)cc1F` [CBK161529] it was 85.6%; in that of `CC(C)c1ccc(CNC(=O)C2(c3ccccc3)CCCC2)cc1` [CBK161531], 96.8%.

On to `N#CCCCN1CCC(Oc2nccnc2OCc2ccc(Cl)cc2Cl)CC1` [CBK161568], for which the viability at 28.5 h, 10 µM worked out at 94.4%. `N#CCCCN1CCC(Oc2nccnc2OCc2cccc3ccccc23)CC1` [CBK161571]: the viability at 28.5 h, 10 µM was 99.3%. Regarding `CC(C)c1ccc(COc2nccnc2OC2CCN(CCCC#N)CC2)cc1` [CBK161576], the viability at 28.5 h, 10 µM came to 96.5%. Under `Clc1ccc(COc2nccnc2OCC2CCCO2)cc1Cl` (centres unmarked) [CBK161587] stands 105%; under `Clc1ccc(COc2nccnc2OCc2cccnc2)cc1Cl` [CBK161597], 85%. In the case of `CC(COC(C)(C)C)Oc1nccnc1OCc1ccc(Cl)c(Cl)c1` (centres unmarked) [CBK161607] it was 113%; in that of `CC(Oc1nccnc1OCc1ccc(Cl)c(Cl)c1)c1ccncc1` (centres unmarked) [CBK161609], 84.1%. On to `Clc1ccc(COc2nccnc2OCc2cccnc2N2CCOCC2)cc1Cl` [CBK161610], for which the viability at 28.5 h, 10 µM worked out at 88.8%. Under `CCCc1ccc(N(C)C(=O)c2ccc(C(C)(C)C)cc2)cc1` [CBK161612] stands 103%. Turning to `CCCc1ccc(N(C)C(=O)c2ccc(OCC)cc2)cc1` [CBK161615], the viability at 28.5 h, 10 µM came out at 107%. In the case of `CCCc1ccc(N(C)C(=O)c2ccc(OC(F)(F)F)cc2)cc1` [CBK161616] it was 91.4%. In the case of `CCCCOc1ccc(C(=O)N(C)c2ccc(CCC)cc2)cc1` [CBK161619] it was 95.9%. For the molecule `FC(F)(F)c1cnc(Oc2ccc(-n3ccnc3)cc2)c(Cl)c1` [CBK161625], the viability at 28.5 h, 10 µM was 90.9%. Under `COC(=O)CCc1ccc(Oc2ncc(C(F)(F)F)cc2Cl)cc1` [CBK161628] stands 111%. In the case of `CC(N)(Cc1ccc(Oc2ncc(C(F)(F)F)cc2Cl)cc1)C(=O)O` (centres unmarked) [CBK161647] it was 91.9%; in that of `O=C(O)c1ccccc1C(=O)c1ccc(Oc2ncc(C(F)(F)F)cc2Cl)cc1` [CBK161648], 106%.

Regarding `CC(=O)N1CCN(c2ccc(Oc3ncc(C(F)(F)F)cc3Cl)cc2)CC1` [CBK161650], the viability at 28.5 h, 10 µM was determined as 104%.

As to `O=C(O)Cc1ccc(Oc2ncc(C(F)(F)F)cc2Cl)cc1` [CBK161657], the viability at 28.5 h, 10 µM worked out at 104%. In the case of `CC(C)(C)OC(=O)Nc1ccc(Oc2ncc(C(F)(F)F)cc2Cl)cc1` [CBK161658] it was 99.2%; in that of `O=C(Nc1nccs1)c1ccc2[nH]ccc2c1` [CBK161731], 90.5%.

With `CS(=O)(=O)Nc1ccc(CNC(=O)c2ccccc2Nc2cccc(C(F)(F)F)c2)cc1` [CBK161732], the viability at 28.5 h, 10 µM turned out to be 85.5%. In the case of `O=C(NCc1ccc2c(c1)OCO2)c1ccc2[nH]ccc2c1` [CBK161750] it was 106%; in that of `CC(C)c1ccc(CNC(=O)c2ccc3[nH]ccc3c2)cc1` [CBK161754], 96.1%. In the case of `CC(C)(C)OC(=O)Nc1ccc2c(ccn2CCN2CCOCC2)c1` [CBK161767] it was 95%. In the case of `CC(C)(C)OC(=O)N1CCC(COc2ccc(-c3ccncc3)cn2)CC1` [CBK161777], the viability at 28.5 h, 10 µM amounted to 91.8%. In the case of `Clc1ccc(COc2nccnc2OCCOc2ccccc2)cc1Cl` [CBK161853] it was 92.5%; in that of `COc1ccc(S(=O)(=O)N(Cc2c(F)cccc2F)C2CCN(C)CC2)cc1` [CBK161910T], 109%. In the case of `CC(C)(C)CN1CCC(Oc2nccnc2OCc2ccc(Br)cc2F)CC1` [CBK161946] it was 116%.

Consider `CC(C)Oc1ccc(C(=O)N2CCC(COc3ccc(-c4ccc(S(C)(=O)=O)cc4)cn3)CC2)nc1` [CBK161989], for which the viability at 28.5 h, 10 µM worked out at 86.8%. In the case of `CSCCCNC(=O)c1cnn2c(C)c(Cc3ccccc3C)c(C)nc12` [CBK162028] it was 96.7%; in that of `Cc1nc2c(C(=O)NCCCOC(C)C)cnn2c(C)c1Cc1cccc(Cl)c1` [CBK162043], 97.1%; in that of `CCOCCCNC(=O)c1cnn2c(C)c(Cc3cccc(OC)c3)c(C)nc12` [CBK162056], 113%. Under `CCOCCCNC(=O)c1cnn2c(C)c(Cc3cccc(C#N)c3)c(C)nc12` [CBK162081] stands 101%; under `Cc1nc2c(C(=O)NCC(F)(F)F)cnn2c(C)c1Cc1cccc(C#N)c1` [CBK162093], 91.6%. In the case of `COCCNC(=O)c1cnn2c(C)c(Cc3cccc(C#N)c3)c(C)nc12` [CBK162096] it was 94.6%.

For the molecule `COCC1CCCN1C(=O)c1cnn2c(C)c(Cc3cccc(C#N)c3)c(C)nc12` (centres unmarked) [CBK162099], the viability at 28.5 h, 10 µM was found to be 99.6%.

Regarding `Cc1nc2c(C(=O)NCCCN3CCCC3=O)cnn2c(C)c1Cc1cccc(F)c1` [CBK162104], the viability at 28.5 h, 10 µM stood at 101%. In the case of `Cc1nc2c(C(=O)NCC(F)(F)F)cnn2c(C)c1Cc1cccc(F)c1` [CBK162117] it was 112%; in that of `CCOCCCNC(=O)c1cnn2c(C)c(CC)c(C)nc12` [CBK162129], 93.7%; in that of `CCc1c(C)nc2c(C(=O)NC(CC)COC)cnn2c1C` (centres unmarked) [CBK162133], 97.5%. In the case of `CCc1c(C)nc2c(C(=O)N3CCOCC3)cnn2c1C` [CBK162134] it was 99.3%. As for `CCc1c(C)nc2c(C(=O)NCCSC)cnn2c1C` [CBK162147], the viability at 28.5 h, 10 µM is 97.2%.

In the case of `CCc1c(C)nc2c(C(=O)NCCCOC)cnn2c1C` [CBK162149], the viability at 28.5 h, 10 µM came out at 82.2%. Under `CCc1c(C)nc2c(C(=O)NCc3cc(C)on3)cnn2c1C` [CBK162150] stands 82.5%. As for `CSCCCNC(=O)c1cnn2c(C)c(Cc3cccnc3)c(C)nc12` [CBK162164], the viability at 28.5 h, 10 µM came to 104%. Take `CNC(=O)c1cnn2c(C)c(Cc3cccnc3)c(C)nc12` [CBK162165]: the viability at 28.5 h, 10 µM worked out at 78.2%. Under `COc1ccc(Cc2c(C)nc3c(C(=O)NCC4COc5ccccc5O4)cnn3c2C)cc1` (centres unmarked) [CBK162179] stands 102%.

As to `COCC1CCCN1C(=O)c1cnn2c(C)c(Cc3ccc(OC)cc3)c(C)nc12` (centres unmarked) [CBK162190], the viability at 28.5 h, 10 µM came out at 107%. In the case of `COc1ccc(Cc2c(C)nc3c(C(=O)NCCSC)cnn3c2C)cc1` [CBK162191] it was 111%; in that of `Cc1nc2c(C(=O)N3CCNC(=O)C3)cnn2c(C)c1Cc1ccccc1` [CBK162197], 90.3%.

`Cc1ccc(C(=O)N2CCC3(CC2)CC(=O)c2cc(Br)ccc2O3)cc1C` [CBK162264]: the viability at 28.5 h, 10 µM came out at 105%. Under `Cc1ccc(C(=O)CN2CCC3(CC2)CC(=O)c2cc(Br)ccc2O3)cc1` [CBK162266] stands 91.2%; under `Cc1cnc(CNC(=O)N2CCN(c3cc(C(F)(F)F)ccn3)CC2)cn1` [CBK162320], 107%. Under `O=C(NCC1CCCCC1)N1CCN(c2cc(C(F)(F)F)ccn2)CC1` [CBK162323] stands 103%; under `COc1ccc(CCNC(=O)N2CCN(c3cc(C(F)(F)F)ccn3)CC2)cc1OC` [CBK162330], 105%; under `CC(NC(=O)N1CCN(c2cc(C(F)(F)F)ccn2)CC1)c1ccccc1` (centres unmarked) [CBK162350], 91.7%. Take `CCOC(=O)N1CCC(NC(=O)N2CCN(c3cc(C(F)(F)F)ccn3)CC2)CC1` [CBK162353]: the viability at 28.5 h, 10 µM was 103%. For `CN(Cc1ccc(-c2ccc(S(C)(=O)=O)cc2)nc1)C1CCNCC1` [CBK163942], the viability at 28.5 h, 10 µM worked out at 99.1%. In the case of `CC(C)(C)OC(=O)N1CCC(Oc2nccnc2OCc2ccc(Cl)cc2F)CC1` [CBK163968] it was 104%; in that of `CN(Cc1ccc(-c2ccc(S(C)(=O)=O)cc2)nc1)C1CCN(C(=O)CC(F)(F)F)CC1` [CBK164098T], 99.3%; in that of `COc1ccc(CCC(=O)N2CCC(N(C)Cc3ccc(-c4ccc(S(C)(=O)=O)cc4)nc3)CC2)cc1Cl` [CBK164102T], 86.6%. In the case of `CN(Cc1ccc(-c2ccc(S(C)(=O)=O)cc2)nc1)C1CCN(C(=O)Cc2cccc(C(F)(F)F)c2)CC1` [CBK164104T] it was 90.2%. In the case of `CC(=O)NCc1cccc(-c2cc(COc3ccc4c(c3)OCO4)cnc2-c2ccc(Cl)cc2)c1` [CBK164106A] it was 105%; in that of `CCc1ccc(CNC(=O)Cn2nnc(-c3ccc(C(C)N4CCC(C)CC4)cc3)n2)cc1` (centres unmarked) [CBK164199T], 97.5%; in that of `COc1cc(OC)cc(C(=O)N2CCC3(CC2)CC(=O)c2cc(C)c(C)cc2O3)c1` [CBK164201], 83.3%.

Take `CC(=O)NCc1cccc(-c2cc(C(=O)NCCc3cccc(OC(F)(F)F)c3)cnc2-c2ccc(Cl)cc2)c1` [CBK164414]: the viability at 28.5 h, 10 µM turned out to be 84.7%. In the case of `CC(=O)NCc1cccc(-c2cc(C(=O)NCC3CN(Cc4ccccc4)CCO3)cnc2-c2ccc(Cl)cc2)c1` (centres unmarked) [CBK164416T] it was 88.5%; in that of `Cc1ccc(CNC(=O)Cn2cc(-c3ccc(CN4CCC(C)CC4)cc3)nn2)cc1` [CBK164706], 87.1%; in that of `CC1CCN(Cc2ccc(-c3cn(CC(=O)NCc4ccc(Br)cc4)nn3)cc2)CC1` [CBK164709], 93%. Under `CC(C)CCNCc1ccc(-c2cn(CC(=O)NCCc3ccccc3)nn2)cc1` [CBK164740] stands 95.9%.

Consider `Cc1nc2c(C(=O)NC3CCOCC3)cnn2c(C)c1Cc1cccc(Br)c1` [CBK165011], for which the viability at 28.5 h, 10 µM came to 92.3%.

For `Cn1cnc(S(=O)(=O)N(c2ccc(C(C)(C)C)cc2)C2CCNCC2)c1` [CBK165046T], the viability at 28.5 h, 10 µM is 87.5%. Under `CC(=O)Nc1ccc(S(=O)(=O)N(c2ccc(C(C)(C)C)cc2)C2CCNCC2)cc1` [CBK165062T] stands 90.4%; under `Cc1cc(S(=O)(=O)N(c2ccc(C(C)(C)C)cc2)C2CCNCC2)c(C)s1` [CBK165075T], 105%.

The term viability denotes a read-out of living cells in per cent, often relative to untreated cells.
